Test results as given in the supplement of paper PMC10331698.
± gives the standard deviation of the averaged measurements.

How the values were obtained:
Test in all cases: LOEC (log10 uM (lowest observed effect concentration))
[1] = compound: O=C(O)C(F)(F)C(F)(F)C(F)(F)C(F)(F)C(F)(F)C(F)(F)C(F)(F)C(F)(F)Cl [9-Chloro-perfluorononanoic acid]
Method: (§1)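 BioMAP Diversity Plus panel in human primary cell co-cultures, 4 concentrations in duplicate blinded samples. Responses are log10 fold change versus DMSO control, processed with tcpl v2.1.0. A hit is called when responses at any concentration exceed the cutoff (the larger of 3*bmad or log10(1.2)); the lowest observed effect concentration (modl_ga, log10 uM) is reported for hits.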

[2] = compound: CNS(=O)(=O)C(F)(F)C(F)(F)C(F)(F)C(F)(F)C(F)(F)C(F)(F)C(F)(F)C(F)(F)F [N-Methylperfluorooctanesulfonamide]
Method: as §1

[3] = compound: C=CC(=O)OCCC(F)(F)C(F)(F)C(F)(F)C(F)(F)F [2-(Perfluorobutyl)ethyl acrylate]
Method: as §1

[4] = compound: O=C(O)C(F)(F)OC(F)(F)C(F)(F)OC(F)(F)C(F)(F)C(F)(F)C(F)(F)F [Perfluoro-3,6-dioxadecanoic acid]
Method: as §1

[5] = compound: O=C(O)C(F)(F)C(F)(F)C(F)(F)C(F)(F)C(F)(F)C(F)(F)C(F)(F)C(F)(F)C(F)(F)C(F)(F)C(F)(F)C(F)(F)F [Perfluorotridecanoic acid]
Method: as §1

Azathioprine = compound: Cn1cnc([N+](=O)[O-])c1Sc1ncnc2[nH]cnc12 [Azathioprine]
Method: as §1

[6] = compound: O=P(O)(O)CCC(F)(F)C(F)(F)C(F)(F)C(F)(F)C(F)(F)C(F)(F)C(F)(F)C(F)(F)F [((Perfluorooctyl)ethyl)phosphonic acid]
Method: as §1

[7] = compound: O=C(O)C(F)(F)C(F)(F)C(F)(F)C(F)(F)C(F)(F)C(F)(F)C(F)(F)C(F)(F)C(F)(F)C(F)(F)C(F)(F)C(F)(F)C(F)(F)F [Perfluorotetradecanoic acid]
Method: as §1

Perfluorooctanamidine = compound: N=C(N)C(F)(F)C(F)(F)C(F)(F)C(F)(F)C(F)(F)C(F)(F)C(F)(F)F [Perfluorooctanamidine]
Method: as §1

[8] = compound: CC(C)(C)C(=O)CC(=O)C(F)(F)C(F)(F)C(F)(F)F [(Heptafluorobutanoyl)pivaloylmethane]
Method: as §1

[9] = compound: O=S(=O)(O)C(F)(F)C(F)(F)C(F)(F)C(F)(F)C(F)(F)C(F)(F)C(F)(F)C(F)(F)F [Perfluorooctanesulfonic acid]
Method: as §1

[10] = compound: O=S(=O)(O)C(F)(F)C(F)(F)C(F)(F)C(F)(F)C(F)(F)C(F)(F)C(F)(F)C(F)(F)F [Potassium perfluorooctanesulfonate]
Method: as §1

[11] = compound: O=S(=O)(O)C(F)(F)C(F)(F)C(F)(F)C(F)(F)F [Perfluorobutanesulfonic acid]
Method: as §1

[12] = compound: O=C(O)CCC(F)(F)C(F)(F)C(F)(F)C(F)(F)C(F)(F)F [2H,2H,3H,3H-Perfluorooctanoic acid]
Method: as §1

Perfluorooctanamide = compound: NC(=O)C(F)(F)C(F)(F)C(F)(F)C(F)(F)C(F)(F)C(F)(F)C(F)(F)F [Perfluorooctanamide]
Method: as §1

[13] = compound: FC(F)(F)C(F)(F)C(F)(F)C(F)(F)C(F)(F)C(F)(F)C(F)(F)CCI [1-Iodo-1H,1H,2H,2H-perfluorononane]
Method: as §1

Test System: 3C HLADR down
- LOEC (log10 uM) [1]: 1.78
- LOEC (log10 uM) [2]: 1.3

Test System: 3C Proliferation down
- LOEC (log10 uM) [3]: 1.78
- LOEC (log10 uM) [1]: 1.78
- LOEC (log10 uM) [4]: 1.04 ± 1
- LOEC (log10 uM) [5]: 1.22 ± 0.37
- LOEC (log10 uM) (Azathioprine): 1.48
- LOEC (log10 uM) [6]: 0.801 ± 0.71
- LOEC (log10 uM) [7]: -0.199 ± 0.71
- LOEC (log10 uM) [2]: 1.54 ± 0.34
- LOEC (log10 uM) (Perfluorooctanamidine): 1.78
- LOEC (log10 uM) [8]: 1.78

Test System: 3C Thrombomodulin up
- LOEC (log10 uM) [1]: 1.78
- LOEC (log10 uM) [8]: 1.78

Test System: 4H Eotaxin3 down
- LOEC (log10 uM) [6]: 1.78
- LOEC (log10 uM) [7]: 0.345 ± 0.71
- LOEC (log10 uM) (Perfluorooctanamidine): 1.78

Test System: 4H VCAM1 down
- LOEC (log10 uM) [1]: 1.78
- LOEC (log10 uM) [5]: 0.716 ± 0.34
- LOEC (log10 uM) (Azathioprine): 1.48
- LOEC (log10 uM) [7]: 0.0731 ± 0.32
- LOEC (log10 uM) (Perfluorooctanamidine): 1.78

Test System: BE3C IL8 down
- LOEC (log10 uM) [9]: 1.3
- LOEC (log10 uM) [1]: 1.54 ± 0.34
- LOEC (log10 uM) [2]: 1.54 ± 0.34

Test System: BE3C MMP9 down
- LOEC (log10 uM) [9]: 1.3
- LOEC (log10 uM) [1]: 1.78
- LOEC (log10 uM) [10]: 1.3
- LOEC (log10 uM) [2]: 0.573 ± 0.39

Test System: BE3C PAI1 down
- LOEC (log10 uM) [9]: 1.3
- LOEC (log10 uM) [1]: 1.3
- LOEC (log10 uM) [10]: 1.3
- LOEC (log10 uM) [2]: 0.845

Test System: BF4T IL8 down
- LOEC (log10 uM) [2]: 1.78

Test System: BT Bcell Proliferation down
- LOEC (log10 uM) [3]: 1.78
- LOEC (log10 uM) (Azathioprine): 1.48
- LOEC (log10 uM) [6]: 1.78
- LOEC (log10 uM) (Perfluorooctanamidine): 1.78

Test System: CASM3C MIG down
- LOEC (log10 uM) [3]: 1.78
- LOEC (log10 uM) [2]: 1.07 ± 0.32

Test System: CASM3C VCAM1 down
- LOEC (log10 uM) [3]: 1.78
- LOEC (log10 uM) [5]: 0.954
- LOEC (log10 uM) (Azathioprine): 1.48
- LOEC (log10 uM) [2]: 0.801 ± 0.71

Test System: IMphg ESelectin down
- LOEC (log10 uM) (Azathioprine): 1.48
- LOEC (log10 uM) [2]: 0.845

Test System: IMphg ESelectin up
- LOEC (log10 uM) [9]: 1.78
- LOEC (log10 uM) [10]: 1.78
- LOEC (log10 uM) [6]: 1.78

Test System: IMphg IL1a up
- LOEC (log10 uM) [2]: 1.54 ± 0.34

Test System: IMphg IL8 up
- LOEC (log10 uM) [11]: 1.78

Test System: IMphg IL10 down
- LOEC (log10 uM) [9]: 1.78
- LOEC (log10 uM) [12]: 1.78
- LOEC (log10 uM) [1]: 1.78
- LOEC (log10 uM) [4]: 1.78
- LOEC (log10 uM) (Azathioprine): 1.48
- LOEC (log10 uM) [10]: 1.78
- LOEC (log10 uM) [6]: 1.78

Test System: KF3CT IL8 down
- LOEC (log10 uM) [1]: 1.78
- LOEC (log10 uM) [4]: 1.78
- LOEC (log10 uM) [2]: 1.3

Test System: KF3CT MMP9 down
- LOEC (log10 uM) [1]: 1.3
- LOEC (log10 uM) (Perfluorooctanamide): 1.78

Test System: KF3CT PAI1 up
- LOEC (log10 uM) [2]: 0.801 ± 0.71

Test System: LPS PGE2 up
- LOEC (log10 uM) [6]: 1.78
- LOEC (log10 uM) [8]: 1.78

Test System: MyoF CollagenIV up
- LOEC (log10 uM) [1]: 1.3
- LOEC (log10 uM) [4]: 1.78
- LOEC (log10 uM) [2]: 0.845

Test System: hDFCGF CollagenIII down
- LOEC (log10 uM) [1]: 1.3
- LOEC (log10 uM) [4]: 1.78
- LOEC (log10 uM) [5]: 0.477
- LOEC (log10 uM) (Azathioprine): 0.977 ± 0.71
- LOEC (log10 uM) [6]: 1.3
- LOEC (log10 uM) (Perfluorooctanamidine): 1.3

Test System: hDFCGF ICAM1 down
- LOEC (log10 uM) [3]: 1.78
- LOEC (log10 uM) [1]: 1.07 ± 0.32
- LOEC (log10 uM) [2]: 1.78

Test System: hDFCGF Proliferation down
- LOEC (log10 uM) [13]: 0.301
- LOEC (log10 uM) [3]: 1.54 ± 0.34
- LOEC (log10 uM) [1]: 1.78
- LOEC (log10 uM) [5]: 0.477
- LOEC (log10 uM) (Azathioprine): 1.48
- LOEC (log10 uM) [10]: 1.78
- LOEC (log10 uM) [6]: 1.78
- LOEC (log10 uM) (Perfluorooctanamidine): 1.78

Test System: hDFCGF VCAM1 down
- LOEC (log10 uM) [9]: 1.78
- LOEC (log10 uM) [3]: 1.3
- LOEC (log10 uM) [1]: 1.78
- LOEC (log10 uM) [4]: 1.3
- LOEC (log10 uM) [5]: 0.977 ± 0.71
- LOEC (log10 uM) (Azathioprine): 1.48
- LOEC (log10 uM) [10]: 1.78
- LOEC (log10 uM) [2]: 0.573 ± 0.39
- LOEC (log10 uM) (Perfluorooctanamidine): 1.54 ± 0.34
